Measured values from paper PMC12920295, “Novel radiohybrid PET-Tracers for SST2-targeted imaging of neuroendocrine tumors” (European Journal of Nuclear Medicine and Molecular Imaging, 2025).
Like-named read-outs stand apart in the source and are kept apart here.

How the values were obtained:
AR42J cells = test: Internalization into AR42J cells relative to [125I]TOC; format: cell-based; conditions: percentage compared to internal reference [125I]TOC
Experimental: AR42J cells (European Collection of Cell Cultures, Salisbury, UK) were grown in RPMI 1640 medium (with 2 mM, L-Glu, 10% FCS; v/v, 37 °C, 5% CO2), harvested 24 ± 2 h and seeded in 24-well poly-L-lysine plates (2.0 × 10^5 cells/well in 1 ml culture medium). After removal of the medium, the cells were washed with assay medium (300 µl, RPMI 1640 with 2 mM L-Glu, 5% BSA; v/v) and incubated in assay medium (200 µl, 15 min, 37 °C, 5% CO2). 25 µl of the ^18F-labeled ligand (20 nM) and [^125I]TOC (1 nM) in assay medium were added followed by either 25 µl TOC in assay medium (100 µM, competition experiment) or 25 µl of assay medium (internalization experiment). Cells were incubated at 37 °C for 15, 30, and 60 min (n = 3 per compound and time point), respectively, and chilled on ice. The supernatant was collected, the well washed with ice-cold RPMI 1640 (300 µl), and the two fractions combined (unbound ligand). The cells were incubated with acid wash solution (300 µl, 0.9% NaCl, 50 mM NaOAc/AcOH buffer, pH = 4.6, 15 min, 4 °C) to remove receptor-bound radioligand. The supernatant was collected, and the cells washed with 300 µl ice-cold acid wash solution (combined fractions: acid releasable, receptor bound ligand). The cells were lysed with NaOH solution (300 µl, 1 M, 15 min, RT), washed with 300 µl of the same solution, the two fractions combined (internalized ligand), and all activities quantified using a γ-counter.

[1] = biological target: T1, human serum albumin (HSA) (Homo sapiens, UniProt P02768); test: HSA binding by high performance affinity chromatography (HPAC); format: in vitro ADME; conditions: affinity to HSA by affinity chromatography (Chiralpak HSA column)
T1 construct: purchased H13H-2433
Experimental: For the determination of binding to human serum albumin (HSA) using HPLC, a Chiralpak HSA column (50 × 3 mm, 5 μm, H13H-2433) was used at a constant flow rate of 0.5 ml/min. The mobile phase (A: NH4OAc, 50 mM in H2O, pH 6.9 and B: iPrOH) was freshly prepared for each day.

[2] = Lipophilicity LogDpH=7.4, shake flask method; format: physicochemical; conditions: PBS (pH = 7.4)/n-octanol
Experimental: The LogDpH=7.4 was determined using a modified shake flask method as previously described.

[3] = Biodistribution 1 h p.i. in AR42J xenograft bearing CD1 nu/nu mice; format: in vivo; conditions: female, mouse, intravenous, total radioactivity, average ± Stdev
Experimental: The 8-week-old female CD1 nu/nu mice were purchased from Charles River (Sulzfeld, Germany). Animal experiments were conducted according to general animal welfare regulations (German animal protection act, as amended on 18.05.2018, Art. 141 G v. 29.3.2017 I 626, approval no. 55.2-1.2-54–2532-71-13 by the General Administration of the Free State of Bavaria; Swiss animal welfare regulations: Animal Welfare Act SR 455, license: Canton de Vaud, 3781 d). To establish tumor xenografts, AR42J cells (5 × 10^6 cells in 100 µl serum-free culture medium) were inoculated subcutaneously onto the shoulder. Mice were used for experiments when tumors had grown to a diameter of 5–9 mm (7–15 days after inoculation).
Approximately 0.5–2.5 MBq (0.05–0.20 nmol) of the ^18F-labeled ligands were injected into the tail vein of AR42J xenograft-bearing mice under isoflurane anesthesia (1.5% alveolar concentration). The mice were sacrificed 1 h post injection (n = 3–5). Organs were removed, weighed, and the activity quantified (γ-counter).
An unpaired Welch’s t-test was applied using the GraphPad Prism software (version 10.1.2). Standard deviations for tumor-to-organ (T/O) ratios were calculated using the rules of error propagation. Thresholds for statistical significance are defined as: p > 0.05 (ns); p ≤ 0.05 (*); p ≤ 0.01 (**); p ≤ 0.001 (***); p ≤ 0.0001 (****).

[4] = adrenal glands, AR42J tumor-bearing CD1 nu/nu mice, read-out: Biodistribution Adrenal Glands
[5] = blood, AR42J tumor-bearing CD1 nu/nu mice, read-out: Biodistribution Blood
[6] = femur, AR42J tumor-bearing CD1 nu/nu mice, read-out: Biodistribution Femur
[7] = heart, AR42J tumor-bearing CD1 nu/nu mice, read-out: Biodistribution Heart
[8] = intestine, AR42J tumor-bearing CD1 nu/nu mice, read-out: Biodistribution Intestine
[9] = kidney, AR42J tumor-bearing CD1 nu/nu mice, read-out: Biodistribution Kidney
[10] = liver, AR42J tumor-bearing CD1 nu/nu mice, read-out: Biodistribution Liver
[11] = lung, AR42J tumor-bearing CD1 nu/nu mice, read-out: Biodistribution Lung
[12] = muscle, AR42J tumor-bearing CD1 nu/nu mice, read-out: Biodistribution Muscle
[13] = pancreas, AR42J tumor-bearing CD1 nu/nu mice, read-out: Biodistribution Pancreas
[14] = spleen, AR42J tumor-bearing CD1 nu/nu mice, read-out: Biodistribution Spleen
[15] = stomach, AR42J tumor-bearing CD1 nu/nu mice, read-out: Biodistribution Stomach
[16] = tumor (AR42J xenograft), AR42J xenograft, CD1 nu/nu mice, read-out: Biodistribution Tumor

T1 sequence (P02768 25-609): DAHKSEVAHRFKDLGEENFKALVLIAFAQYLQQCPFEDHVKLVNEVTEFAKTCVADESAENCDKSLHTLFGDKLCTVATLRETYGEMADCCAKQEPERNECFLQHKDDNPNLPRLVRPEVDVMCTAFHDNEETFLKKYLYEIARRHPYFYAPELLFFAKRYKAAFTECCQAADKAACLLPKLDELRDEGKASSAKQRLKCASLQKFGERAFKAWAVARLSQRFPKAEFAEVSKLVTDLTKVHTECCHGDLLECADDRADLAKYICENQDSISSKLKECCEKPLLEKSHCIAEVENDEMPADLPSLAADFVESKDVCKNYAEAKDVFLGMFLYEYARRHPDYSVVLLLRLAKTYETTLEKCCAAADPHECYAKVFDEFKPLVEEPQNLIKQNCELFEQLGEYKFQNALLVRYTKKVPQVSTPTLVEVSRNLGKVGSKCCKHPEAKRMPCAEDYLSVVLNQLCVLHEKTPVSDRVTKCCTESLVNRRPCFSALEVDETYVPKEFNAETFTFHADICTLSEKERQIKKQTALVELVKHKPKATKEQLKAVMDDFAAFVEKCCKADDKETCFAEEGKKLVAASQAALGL

With `C[C@@H](O)[C@H](NC(=O)[C@@H]1CSSC[C@H](NC(=O)[C@@H](Cc2ccccc2)NC(=O)CN2CCN(CC(=O)O)CCN(CC(=O)NCCCC[C@@H](NC(=O)[C@@H](CNC(=O)C[N+](C)(C)Cc3ccc([Si](F)(C(C)(C)C)C(C)(C)C)cc3)NC(=O)[C@@H](CCCNC(N)=O)NC(=O)[C@@H](CCCNC(N)=O)NC(=O)[C@H](N)CCCNC(N)=O)C(=O)O)CCN(CC(=O)O)CC2)C(=O)N[C@@H](Cc2ccc(O)cc2)C(=O)N[C@H](Cc2c[nH]c3ccccc23)C(=O)N[C@@H](CCCCN)C(=O)N[C@@H]([C@@H](C)O)C(=O)N1)C(=O)O` [[^18/natF][^natGa]rhTATE2.1, metal not drawn] the Internalization (AR42J cells) was 536%, the “HSA HPAC” value [1] was 98.8% and the “LogDpH=7.4” value ([2]; mean of n = 8) was −2.27.
Molecule `C[C@@H](O)[C@H](NC(=O)[C@@H]1CSSC[C@H](NC(=O)[C@@H](Cc2ccccc2)NC(=O)CN2CCN(CC(=O)O)CCN(CC(=O)NCCCC[C@@H](NC(=O)[C@@H](CNC(=O)C[N+](C)(C)Cc3ccc([Si](F)(C(C)(C)C)C(C)(C)C)cc3)NC(=O)[C@@H](CCCNC(N)=O)NC(=O)[C@@H](CCCNC(N)=O)NC(=O)[C@H](N)CCC(=O)O)C(=O)O)CCN(CC(=O)O)CC2)C(=O)N[C@@H](Cc2ccc(O)cc2)C(=O)N[C@H](Cc2c[nH]c3ccccc23)C(=O)N[C@@H](CCCCN)C(=O)N[C@@H]([C@@H](C)O)C(=O)N1)C(=O)O` [[^18/natF][^natGa]rhTATE2.2, metal not drawn] has an Internalization (AR42J cells) of 550%, a tissue uptake at 1 h [3, 4] of 4.35 ± 0.69 %ID/g and a tissue uptake at 1 h [3, 5] of 0.39 ± 0.19 %ID/g. The tissue uptake at 1 h [3, 6] was 1.7 ± 0.45 %ID/g, the tissue uptake at 1 h [3, 7] was 0.33 ± 0.01 %ID/g and the tissue uptake at 1 h [3, 8] was 2.87 ± 0.15 %ID/g. It also gave a tissue uptake at 1 h [3, 9] of 32.6 ± 3.5 %ID/g, a tissue uptake at 1 h [3, 10] of 2.43 ± 0.36 %ID/g and a tissue uptake at 1 h [3, 11] of 6.29 ± 0.65 %ID/g. The tissue uptake at 1 h [3, 12] was 0.06 ± 0.01 %ID/g, the tissue uptake at 1 h [3, 13] was 31.5 ± 2.32 %ID/g and the tissue uptake at 1 h [3, 14] was 1.31 ± 0.2 %ID/g. The tissue uptake at 1 h [3, 15] was 13.4 ± 1.6 %ID/g, the tissue uptake at 1 h [3, 16] was 27.9 ± 4.78 %ID/g and the “HSA HPAC” value [1] was 94.3%. The “LogDpH=7.4” value ([2]; mean of n = 8) was −2.30.
For `C[C@@H](O)[C@H](NC(=O)[C@@H]1CSSC[C@H](NC(=O)[C@@H](Cc2ccccc2)NC(=O)CN2CCN(CC(=O)O)CCN(CC(=O)NCCCC[C@@H](NC(=O)[C@@H](CNC(=O)C[N+](C)(C)Cc3ccc([Si](F)(C(C)(C)C)C(C)(C)C)cc3)NC(=O)[C@@H](CN)NC(=O)[C@@H](CCC(=O)O)NC(=O)[C@H](N)CCC(=O)O)C(=O)O)CCN(CC(=O)O)CC2)C(=O)N[C@@H](Cc2ccc(O)cc2)C(=O)N[C@H](Cc2c[nH]c3ccccc23)C(=O)N[C@@H](CCCCN)C(=O)N[C@@H]([C@@H](C)O)C(=O)N1)C(=O)O` [[^18/natF][^natGa]rhTATE2.3, metal not drawn], the Internalization (AR42J cells) was 619%, the “HSA HPAC” value [1] was 96.0% and the “LogDpH=7.4” value ([2]; mean of n = 8) was −2.12.
In the case of `C[C@@H](O)[C@H](NC(=O)[C@@H]1CSSC[C@H](NC(=O)[C@@H](Cc2ccccc2)NC(=O)CN2CCN(CC(=O)O)CCN(CC(=O)NCCCC[C@@H](NC(=O)[C@@H](CNC(=O)C[N+](C)(C)Cc3ccc([Si](F)(C(C)(C)C)C(C)(C)C)cc3)NC(=O)[C@@H](CCCCN)NC(=O)[C@@H](CCC(=O)O)NC(=O)[C@H](N)CCC(=O)O)C(=O)O)CCN(CC(=O)O)CC2)C(=O)N[C@@H](Cc2ccc(O)cc2)C(=O)N[C@H](Cc2c[nH]c3ccccc23)C(=O)N[C@@H](CCCCN)C(=O)N[C@@H]([C@@H](C)O)C(=O)N1)C(=O)O` [[^18/natF][^natGa]rhTATE2.4, metal not drawn], the Internalization (AR42J cells) is reported as 841%, the “HSA HPAC” value [1] is reported as 92.7% and the “LogDpH=7.4” value ([2]; mean of n = 8) is reported as −2.28.
In the case of `CC(=O)N[C@@H]1[C@@H](O)[C@H](O)[C@@H](CO)O[C@H]1NC(=O)C[C@H](NC(=O)C[N+](C)(C)Cc1ccc([Si](F)(C(C)(C)C)C(C)(C)C)cc1)C(=O)N[C@@H](CC(=O)O)C(=O)N[C@@H](CC(=O)O)C(=O)NCCOCCOCC(=O)N[C@H](Cc1ccccc1)C(=O)N[C@H]1CSSC[C@@H](C(=O)N[C@H](C(=O)O)[C@@H](C)O)NC(=O)[C@H]([C@@H](C)O)NC(=O)[C@H](CCCCN)NC(=O)[C@@H](Cc2c[nH]c3ccccc23)NC(=O)[C@H](Cc2ccc(O)cc2)NC1=O` [[^nat/18F]SiTATE, SiFAlin-Asn(Ac-NHβGlc)Asp2-PEG1-TATE, reference compound], the Internalization (AR42J cells) is reported as 236%, the tissue uptake at 1 h [3, 4] is reported as 1.89 ± 0.37 %ID/g and the tissue uptake at 1 h [3, 5] is reported as 0.81 ± 0.11 %ID/g. The tissue uptake at 1 h [3, 6] was 1.54 ± 0.34 %ID/g, the tissue uptake at 1 h [3, 7] was 0.47 ± 0.06 %ID/g and the tissue uptake at 1 h [3, 8] was 1.67 ± 0.21 %ID/g. For the same molecule, the tissue uptake at 1 h [3, 9] was 16.3 ± 1 %ID/g, the tissue uptake at 1 h [3, 10] was 1.97 ± 0.25 %ID/g and the tissue uptake at 1 h [3, 11] was 3.38 ± 0.62 %ID/g. The tissue uptake at 1 h [3, 12] was 0.15 ± 0.02 %ID/g, the tissue uptake at 1 h [3, 13] was 8.94 ± 1.98 %ID/g and the tissue uptake at 1 h [3, 14] was 0.66 ± 0.08 %ID/g. The tissue uptake at 1 h [3, 15] was 6.75 ± 0.58 %ID/g, the tissue uptake at 1 h [3, 16] was 22.7 ± 2.68 %ID/g and the “HSA HPAC” value [1] was 86.8%. For the same molecule, the “LogDpH=7.4” value ([2]; mean of n = 8) was −1.27.
In the case of `C[C@@H](O)[C@H](NC(=O)[C@@H]1CSSC[C@H](NC(=O)[C@@H](Cc2ccccc2)NC(=O)CN2CCN(CC(=O)O)CCN(CC(=O)NC[C@@H](NC(=O)C[N+](C)(C)Cc3ccc([Si](F)(C(C)(C)C)C(C)(C)C)cc3)C(=O)O)CCN(CC(=O)O)CC2)C(=O)N[C@@H](Cc2ccc(O)cc2)C(=O)N[C@H](Cc2c[nH]c3ccccc23)C(=O)N[C@@H](CCCCN)C(=O)N[C@@H]([C@@H](C)O)C(=O)N1)C(=O)O` [[^nat/18F][^natGa]rhTATE1, N-SiFAlin-N, N-Me2-Gly-D-Dap(trans-[^natGa]DOTA-TATE), metal not drawn], the “HSA HPAC” value [1] is reported as 95.4%, the “LogDpH=7.4” value ([2]; mean of n = 8) is reported as −1.03 and the “LogDpH=7.4” value ([2]; mean of n = 8, listed as [^natGa]rhTATE1) is reported as -1.03.
In the case of `C[C@@H](O)[C@H](NC(=O)[C@@H]1CSSC[C@H](NC(=O)[C@@H](Cc2ccccc2)NC(=O)CN2CCN(CC(=O)O)CCN(CC(=O)NCCCC[C@@H](NC(=O)C[N+](C)(C)Cc3ccc([Si](F)(C(C)(C)C)C(C)(C)C)cc3)C(=O)O)CCN(CC(=O)O)CC2)C(=O)N[C@@H](Cc2ccc(O)cc2)C(=O)N[C@H](Cc2c[nH]c3ccccc23)C(=O)N[C@@H](CCCCN)C(=O)N[C@@H]([C@@H](C)O)C(=O)N1)C(=O)O` [[^nat/18F][^natGa]rhTATE2, N-SiFAlin-N, N-Me2-Gly-D-Lys(trans-[^natGa]DOTA-TATE), metal not drawn], the “HSA HPAC” value [1] is reported as 94.5% and the “LogDpH=7.4” value ([2]; mean of n = 8) is reported as −1.19.
